Experimental data as given in US20220177538A1, “CO-AGONISTS AT GLP-1 AND GIP RECEPTORS SUITABLE FOR ORAL DELIVERY” (Novo Nordisk A/S, priority 2020, published 2022).
Like-named read-outs stand apart in the source and are kept apart here. Starred links: 1 amine or outer side, 2 acyl side, 3 side chain; linkers in the order of their positions; H or OH if unused. Non-standard residues stand in square brackets, D forms with d. Residues, ends and D or L forms follow the SMILES beside them. Groups on a side chain read outwards from the residue. *: point of attachment. C18 diacid = O=C(O)CCCCCCCCCCCCCCCCC(=O)*; C16 diacid = O=C(O)CCCCCCCCCCCCCCC(=O)*; γGlu = O=C(O)[C@H](CCC(=O)[*:2])N[*:1]; εLys = N[C@@H](CCCCN[*:1])C(=O)[*:2]; AEEA = NCCOCCOCC(=O)O; Aib = CC(C)(N)C(=O)O

Experiments:
human GIP receptor = molecular target: T1, human GIP receptor (Homo sapiens, UniProt P48546); experiment: In vitro functional potency, CRE luciferase reporter, whole BHK cells (hGIPR); type: cell-based; conditions: BHK CRE luc2P hGIPR cells
T1 construct: expressed in transfected cells; host or cells: BHK (parent line BHKTS13), clone BHK CRE luc2P hGIPR
T1 sequence (P48546 22-466): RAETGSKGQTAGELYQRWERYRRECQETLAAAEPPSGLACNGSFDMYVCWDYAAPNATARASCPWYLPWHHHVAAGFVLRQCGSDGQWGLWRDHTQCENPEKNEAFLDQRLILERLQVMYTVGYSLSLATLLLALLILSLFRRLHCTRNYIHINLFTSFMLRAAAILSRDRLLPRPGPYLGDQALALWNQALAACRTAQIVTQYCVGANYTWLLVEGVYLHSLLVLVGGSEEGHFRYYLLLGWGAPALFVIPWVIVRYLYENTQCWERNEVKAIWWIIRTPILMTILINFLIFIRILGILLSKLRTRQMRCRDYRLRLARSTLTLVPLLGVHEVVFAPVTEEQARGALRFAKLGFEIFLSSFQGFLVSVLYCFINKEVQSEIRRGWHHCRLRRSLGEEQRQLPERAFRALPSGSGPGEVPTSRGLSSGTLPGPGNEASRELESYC
Method in brief: (§1)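 BHK CRE luc2P cells stably expressing hGIPR or hGLP-1R were seeded at 5000 cells/well overnight. They were treated 3 h at 37° C with a 12-point, 3.5-fold compound series in buffer with or without HSA, and luciferase luminescence was read. Values come from log(agonist)-response regression, averaging at least two replicates.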

human GLP-1 receptor = human GLP-1 receptor (Homo sapiens, UniProt P43220); experiment: In vitro functional potency, CRE luciferase reporter, whole BHK cells (hGLP-1R); type: cell-based; design: expressed in transfected cells; host or cells: BHK (parent line BHKTS13), clone BHK CRE luc2P hGLP-1R; conditions: BHK CRE luc2P hGLP-1R cells
Method in brief: as §1

[1] = 0% HSA, read-out: hGIPR, CRE Luc 0% HSA EC50
[2] = hGIPR, CRE Luc 1% HSA EC50, 1% HSA
[3] = 0% HSA, read-out: hGLP-1R, CRE Luc 0% HSA EC50
[4] = hGLP-1R, CRE Luc 1% HSA EC50, 1% HSA

Chain of human GLP-1 receptor (P43220 24-463): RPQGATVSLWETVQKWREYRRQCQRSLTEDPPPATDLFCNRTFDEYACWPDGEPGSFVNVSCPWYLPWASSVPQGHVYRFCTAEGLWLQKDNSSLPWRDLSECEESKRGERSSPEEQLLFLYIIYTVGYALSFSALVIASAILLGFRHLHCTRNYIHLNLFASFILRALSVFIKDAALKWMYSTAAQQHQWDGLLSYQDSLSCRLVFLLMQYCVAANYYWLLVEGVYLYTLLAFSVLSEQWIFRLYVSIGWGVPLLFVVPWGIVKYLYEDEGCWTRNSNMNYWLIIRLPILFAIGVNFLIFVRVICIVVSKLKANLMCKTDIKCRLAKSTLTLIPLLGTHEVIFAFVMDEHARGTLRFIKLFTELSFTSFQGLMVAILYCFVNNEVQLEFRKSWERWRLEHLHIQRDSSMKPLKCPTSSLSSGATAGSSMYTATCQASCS

| Compound | EC50 (human GIP receptor; [1]) [nM] | EC50 (human GIP receptor; [2]) [nM] | EC50 (human GLP-1 receptor; [3]) [nM] | EC50 (human GLP-1 receptor; [4]) [nM] | EC50 (human GIP receptor; hGIPR, CRE Luc 0% HSA EC50, 0% HSA) [nM] | EC50 (human GLP-1 receptor; hGLP-1R, CRE Luc 0% HSA EC50, 0% HSA) [nM] |
| --- | --- | --- | --- | --- | --- | --- |
| CC[C@H](C)[C@H](NC(=O)[C@H](Cc1ccccc1)NC(=O)[C@H](CCC(=O)O)NC(=O)[C@H](CCCNC(=N)N)NC(=O)[C@H](C)NC(=O)[C@H](C)NC(=O)[C@H](CCC(N)=O)NC(=O)[C@H](CCCCNC(=O)COCCOCCNC(=O)COCCOCCNC(=O)CC[C@H](NC(=O)CCCCCCCCCCCCCCCCC(=O)O)C(=O)O)NC(=O)[C@H](CCC(=O)O)NC(=O)[C@H](CC(C)C)NC(=O)[C@@H](NC(=O)[C@@H](NC(=O)[C@H](CO)NC(=O)[C@H](Cc1ccc(O)cc1)NC(=O)[C@H](CC(=O)O)NC(=O)[C@H](CO)NC(=O)[C@@H](NC(=O)[C@H](Cc1ccccc1)NC(=O)[C@@H](NC(=O)CNC(=O)[C@H](CCC(=O)O)NC(=O)C(C)(C)NC(=O)[C@@H](N)Cc1ccc(O)cc1)[C@@H](C)O)[C@@H](C)O)[C@@H](C)CC)[C@@H](C)CC)C(=O)N[C@@H](CC(N)=O)C(=O)N[C@@H](Cc1c[nH]c2ccccc12)C(=O)N[C@@H](CC(C)C)C(=O)N[C@@H](CC(C)C)C(=O)N[C@@H](C)C(=O)NCC(=O)NCC(=O)N1CCC[C@H]1C(=O)N[C@@H](CO)C(=O)N[C@@H](CO)C(=O)NCC(=O)N[C@@H](C)C(=O)N1CCC[C@H]1C(=O)N1CCC[C@H]1C(=O)N1CCC[C@H]1C(=O)N[C@@H](CO)C(=O)O [Compound 36] (H-Y[Aib]EGTFTSDYSIILEK([AEEA-AEEA-γGlu-C18 diacid])QAAREFINWLLAGGPSSGAPPPS-OH) | 0.0055 | 0.356 | 0.0047 | 0.414 |  |  |
| CC[C@H](C)[C@H](NC(=O)[C@H](CO)NC(=O)[C@H](Cc1ccc(O)cc1)NC(=O)[C@H](CC(=O)O)NC(=O)[C@H](CO)NC(=O)[C@@H](NC(=O)[C@H](Cc1ccccc1)NC(=O)[C@@H](NC(=O)CNC(=O)[C@H](CCC(=O)O)NC(=O)C(C)(C)NC(=O)[C@@H](N)Cc1ccc(O)cc1)[C@@H](C)O)[C@@H](C)O)C(=O)N[C@@H](CC(C)C)C(=O)N[C@@H](CC(C)C)C(=O)N[C@@H](CCC(=O)O)C(=O)N[C@@H](CCCCNC(=O)[C@@H](N)CCCCNC(=O)[C@@H](N)CCCCNC(=O)CC[C@H](NC(=O)CCCCCCCCCCCCCCCCC(=O)O)C(=O)O)C(=O)N[C@@H](CCC(N)=O)C(=O)N[C@@H](C)C(=O)N[C@@H](C)C(=O)N[C@@H](CCCNC(=N)N)C(=O)N[C@@H](CCC(=O)O)C(=O)N[C@@H](Cc1ccccc1)C(=O)N[C@H](C(=O)N[C@@H](CC(N)=O)C(=O)N[C@@H](Cc1c[nH]c2ccccc12)C(=O)N[C@@H](CC(C)C)C(=O)N[C@@H](CC(C)C)C(=O)N[C@@H](C)C(=O)NCC(=O)NCC(=O)N1CCC[C@H]1C(=O)N[C@@H](CO)C(=O)N[C@@H](CO)C(=O)NCC(=O)N[C@@H](C)C(=O)N1CCC[C@H]1C(=O)N1CCC[C@H]1C(=O)N1CCC[C@H]1C(=O)N[C@@H](CO)C(=O)O)C(C)C [Compound 22] (H-Y[Aib]EGTFTSDYSILLEK([εLys-εLys-γGlu-C18 diacid])QAAREFVNWLLAGGPSSGAPPPS-OH) | 0.0062 | 0.169 | 0.0028 | 0.171 |  |  |
| CC[C@H](C)[C@H](NC(=O)[C@H](Cc1ccccc1)NC(=O)[C@H](CCC(=O)O)NC(=O)[C@H](CCCNC(=N)N)NC(=O)[C@H](C)NC(=O)[C@H](C)NC(=O)[C@H](CCC(N)=O)NC(=O)[C@H](CCCCNC(=O)[C@@H](N)CCCCNC(=O)[C@@H](N)CCCCNC(=O)CC[C@H](NC(=O)CCCCCCCCCCCCCCCCC(=O)O)C(=O)O)NC(=O)[C@H](CCC(=O)O)NC(=O)[C@H](CC(C)C)NC(=O)[C@H](Cc1ccc(O)cc1)NC(=O)[C@@H](NC(=O)[C@H](CO)NC(=O)[C@H](Cc1ccc(O)cc1)NC(=O)[C@H](CC(=O)O)NC(=O)[C@H](CO)NC(=O)[C@@H](NC(=O)[C@H](Cc1ccccc1)NC(=O)[C@@H](NC(=O)CNC(=O)[C@H](CCC(=O)O)NC(=O)[C@H](C)NC(=O)[C@@H](N)Cc1ccc(O)cc1)[C@@H](C)O)[C@@H](C)O)[C@@H](C)CC)C(=O)N[C@@H](CC(N)=O)C(=O)N[C@@H](Cc1c[nH]c2ccccc12)C(=O)N[C@@H](CC(C)C)C(=O)N[C@@H](CC(C)C)C(=O)N[C@@H](C)C(=O)NCC(=O)NCC(=O)N1CCC[C@H]1C(=O)N[C@@H](CO)C(=O)N[C@@H](CO)C(=O)NCC(=O)N[C@@H](C)C(=O)N1CCC[C@H]1C(=O)N1CCC[C@H]1C(=O)N1CCC[C@H]1C(=O)N[C@@H](CO)C(=O)O [Compound 17] (H-YAEGTFTSDYSIYLEK([εLys-εLys-γGlu-C18 diacid])QAAREFINWLLAGGPSSGAPPPS-OH) | 0.0349 | 1.32 | 0.0052 | 0.257 |  |  |
| CC[C@H](C)[C@H](NC(=O)[C@H](Cc1ccccc1)NC(=O)[C@H](CCC(=O)O)NC(=O)[C@H](CCCNC(=N)N)NC(=O)[C@H](C)NC(=O)[C@H](C)NC(=O)[C@H](CCC(N)=O)NC(=O)[C@H](CCC(=O)O)NC(=O)[C@H](CCC(=O)O)NC(=O)[C@H](CC(C)C)NC(=O)[C@H](CC(C)C)NC(=O)[C@@H](NC(=O)[C@H](CO)NC(=O)[C@H](Cc1ccc(O)cc1)NC(=O)[C@H](CC(=O)O)NC(=O)[C@H](CO)NC(=O)[C@@H](NC(=O)[C@H](Cc1ccccc1)NC(=O)[C@@H](NC(=O)CNC(=O)[C@H](CCC(=O)O)NC(=O)C(C)(C)NC(=O)[C@@H](N)Cc1ccc(O)cc1)[C@@H](C)O)[C@@H](C)O)[C@@H](C)CC)C(=O)N[C@@H](CCC(=O)O)C(=O)N[C@@H](Cc1c[nH]c2ccccc12)C(=O)N[C@@H](CC(C)C)C(=O)N[C@@H](CC(C)C)C(=O)N[C@@H](C)C(=O)NCC(=O)NCC(=O)N1CCC[C@H]1C(=O)N[C@@H](CO)C(=O)N[C@@H](CCCCNC(=O)COCCOCCNC(=O)COCCOCCNC(=O)CC[C@H](NC(=O)CCCCCCCCCCCCCCC(=O)O)C(=O)O)C(=O)NCC(=O)N[C@@H](C)C(=O)N1CCC[C@H]1C(=O)N1CCC[C@H]1C(=O)N1CCC[C@H]1C(=O)N[C@@H](CO)C(=O)O [Compound 47] (H-Y[Aib]EGTFTSDYSILLEEQAAREFIEWLLAGGPSK([AEEA-AEEA-γGlu-C16 diacid])GAPPPS-OH) | 0.0031 | 0.156 | 0.0021 | 0.154 |  |  |
| CC[C@H](C)[C@H](NC(=O)[C@H](Cc1ccccc1)NC(=O)[C@H](CCC(=O)O)NC(=O)[C@H](CCCNC(=N)N)NC(=O)[C@H](C)NC(=O)[C@H](C)NC(=O)[C@H](CCC(N)=O)NC(=O)[C@H](CCCCNC(=O)[C@@H](N)CCCCNC(=O)[C@@H](N)CCCCNC(=O)CC[C@H](NC(=O)CCCCCCCCCCCCCCCCC(=O)O)C(=O)O)NC(=O)[C@H](CCC(=O)O)NC(=O)[C@H](CC(C)C)NC(=O)[C@H](CC(C)C)NC(=O)[C@@H](NC(=O)[C@H](CO)NC(=O)[C@H](Cc1ccc(O)cc1)NC(=O)[C@H](CC(=O)O)NC(=O)[C@H](CO)NC(=O)[C@@H](NC(=O)[C@@H](NC(=O)[C@@H](NC(=O)CNC(=O)[C@H](CCC(=O)O)NC(=O)C(C)(C)NC(=O)[C@@H](N)Cc1ccc(O)cc1)[C@@H](C)O)C(C)C)[C@@H](C)O)[C@@H](C)CC)C(=O)N[C@@H](CC(N)=O)C(=O)N[C@@H](Cc1c[nH]c2ccccc12)C(=O)N[C@@H](CC(C)C)C(=O)N[C@@H](CC(C)C)C(=O)N[C@@H](C)C(=O)NCC(=O)NCC(=O)N1CCC[C@H]1C(=O)N[C@@H](CO)C(=O)N[C@@H](CO)C(=O)NCC(=O)N[C@@H](C)C(=O)N1CCC[C@H]1C(=O)N1CCC[C@H]1C(=O)N1CCC[C@H]1C(=O)N[C@@H](CO)C(=O)O [Compound 33] (H-Y[Aib]EGTVTSDYSILLEK([εLys-εLys-γGlu-C18 diacid])QAAREFINWLLAGGPSSGAPPPS-OH) | 0.0029 | 0.103 | 0.0148 | 0.361 |  |  |
| CC[C@H](C)[C@H](NC(=O)[C@H](Cc1ccccc1)NC(=O)[C@H](CCC(=O)O)NC(=O)[C@H](CCCNC(=N)N)NC(=O)[C@H](C)NC(=O)[C@H](C)NC(=O)[C@H](CCC(N)=O)NC(=O)[C@H](CCCCNC(=O)[C@@H](N)CCCCNC(=O)[C@@H](N)CCCCNC(=O)CC[C@H](NC(=O)CCCCCCCCCCCCCCCCC(=O)O)C(=O)O)NC(=O)[C@H](CCC(=O)O)NC(=O)[C@H](CC(C)C)NC(=O)[C@H](CC(C)C)NC(=O)[C@@H](NC(=O)[C@H](CO)NC(=O)[C@H](Cc1ccc(O)cc1)NC(=O)[C@H](CC(=O)O)NC(=O)[C@H](CO)NC(=O)[C@@H](NC(=O)[C@H](Cc1ccccc1)NC(=O)[C@@H](NC(=O)CNC(=O)[C@H](CCC(=O)O)NC(=O)C(C)(C)NC(=O)[C@@H](N)Cc1ccc(O)cc1)[C@@H](C)O)[C@@H](C)O)[C@@H](C)CC)C(=O)N[C@@H](CC(N)=O)C(=O)N[C@@H](Cc1c[nH]c2ccccc12)C(=O)N[C@@H](CC(C)C)C(=O)N[C@@H](CC(C)C)C(=O)N[C@@H](C)C(=O)NCC(=O)NCC(=O)N1CCC[C@H]1C(=O)N[C@@H](CO)C(=O)N[C@@H](CO)C(=O)NCC(=O)N[C@@H](C)C(=O)O [Compound 21] (H-Y[Aib]EGTFTSDYSILLEK([εLys-εLys-γGlu-C18 diacid])QAAREFINWLLAGGPSSGA-OH) |  | 0.131 |  | 0.118 | 0.0054 | 0.0057 |
